Data on 2 compounds can be found in patent US20240115270A1, “DIRECT ORAL ANTICOAGULANT-ELUTING MEDICAL DEVICE” (BOSTON SCIENTIFIC SCIMED, INC., priority 2021, published 2024).

One assay has as its system bovine blood. Kind of assay: Thrombogenicity of spray-coated Watchman device in bovine blood. To be noted: bovine blood ACT=210, 15 minutes. As for the experimental part: A drug/polymer solution of PVDF-HFP and DOAC was prepared in 80/20 acetone/DMSO (wt/wt). The PVDF-HFP to drug ratio was 60/40 (wt/wt) and the solution solids was 2%. The DOAC drug evaluated was rivaroxaban (Xarelto). A 24 mm diameter Watchman device was spray-coated with the polymer/drug solution at a flow rate of 10 ml/hr to apply a basecoat. The device was dried for 30 min at 125° C. in a convection oven and then spray-coated with a topcoat solution (2% PVDF-HFP in 100% acetone), at a flow rate of 10 ml/hr. The total basecoat weight was 38.8 mg and the topcoat weight was 18.7 mg. The spray-coated device was then placed in PBS/Tween solution at 37° C. for 11 days to simulate in vivo drug elution. The device was then rinsed with DI water and dried. A PVDF-HFP-only coated control device was also subjected to the same incubation and rinsing protocol. The DOAC-eluting device and the control device were placed in the same container of bovine blood (ACT=210) on an orbital shaker incubator at 37° C. for 15 minutes to assess the thrombogenicity of the two devices.
A solution of PVDF-HFP and DOAC was prepared in 40/60 acetone/DMF (wt/wt). The PVDF-HFP to drug ratio was 70/30 (wt/wt) and the solution solids was 4%. The DOAC drug evaluated was apixaban. […]

A further assay concerns heparinized bovine blood. The experiment in a line: Clot formation on dip-coated PET fabric disks in heparinized bovine blood. To be noted: PVDF-HFP/drug 90/10 dip-coated 15 mm PET fabric disks, ACT about 190 seconds, 37° C., various time points, images FIG. 5. On the procedure: A solution of PVDF-HFP and DOAC was prepared in 80/20 acetone/DMSO (wt/wt). The PVDF-HFP to drug ratio was 90/10 (wt/wt) and the solution solids was 0.7%. The DOAC drugs evaluated were apixaban (Eliquis®), rivaroxaban (Xarelto®) and edoxaban (Savaysa®) 15 mm diameter polyethylene terephthalate (PET) fabric disks were dip coated into the polymer/drug solution at a dip speed of 5 mm/sec. The coated disks were dried for 30 min at 125° C. in a convection oven. The drug coated disks and PVDF-HFP only control disks were placed in cups containing heparinized bovine blood adjusted to an active clotting time (ACT) of about 190 seconds using protamine. The cups were placed on an orbital shaker incubator at 37° C. and disks were removed at various time points and imaged. The disks were then dried and weighed to determine clot weight. […] The clot weights provided in FIG. 6 verify the minimal amount of thrombus formed on the DOAC treated fabric.

Consider `COc1ccc(-n2nc(C(N)=O)c3c2C(=O)N(c2ccc(N4CCCCC4=O)cc2)CC3)cc1` [apixaban], for which the “thrombus formation on partially coated (masked) device” value with bovine blood (PVDF-HFP/drug 70/30 basecoat plus topcoat, proximal face only, 24 mm Watchman, after 7 days in PBS/Tween at 37° C., FIG. 10B) was “inhibited thrombus formation only on the proximal face of the device”. In the assay on heparinized bovine blood, the “thrombus (clots) compared to the PVDF-HFP coated control” value is reported as “significantly less thrombus”.
With `O=C(NC[C@H]1CN(c2ccc(N3CCOCC3=O)cc2)C(=O)O1)c1ccc(Cl)s1` [rivaroxaban], the “thrombus formation on device versus PVDF-HFP-only coated control device” value with bovine blood (PVDF-HFP/drug 60/40 basecoat plus topcoat on 24 mm Watchman, after 11 days in PBS/Tween at 37° C., FIGS. 9A-9D) was “inhibited thrombus formation on the proximal face of the device to a greater degree than did the control device”. Besides, in the assay on heparinized bovine blood, the “thrombus (clots) compared to the PVDF-HFP coated control” value was “significantly less thrombus”.
